# Reference: US11974551B2, “L-serine compositions, methods and uses for treating neurodegenerative diseases and disorders” (priority 2011, dated 2024)
# Entries after “also recorded” stand apart in the source; their conditions may differ.
# Tests used:
# SH-SY5Y cells = experiment: Annexin V binding (apoptosis) by flow cytometry; type: cell-based, human; details: 500 μM BMAA, co-incubation with CHX 2 μg/mL or L-serine 50 μM
# Method: Late-stage apoptosis or necrosis was measured by simultaneous staining with propidium iodide and Annexin V using the BD Pharmingen™ Annexin V—FITC apoptosis detection kit and flow cytometry performed as described previously (Dunlop, et al., Biochem J 435, 207-216 (2010)).
# MRC-5 cells [1] = experiment: Autofluorescence imaging of cells; type: cell-based, human; details: BMAA 300 μM with L-serine 300 μM, 96 hours
# Method: MRC-5 cells were incubated in DMEM supplemented with 300 μM BMAA in the presence or absence of 300 μM L-serine for 96 hours with daily medium changes. Cellular autofluorescence was visualized using an inverted fluorescent microscope (Olympus IX71) as described previously (Dunlop, et al., Biochem J 410, 131-140 (2008)).
# Drosophila fruit flies = experiment: Fruit fly feeding: mortality after three days; type: in vivo, Drosophila melanogaster; details: media with 25 mM BMAA and 25 mM L-Serine, three days
# Method: Preliminary studies show the ability of L-Serine to prevent misincorporation of BMAA into proteins. In a series of feeding experiments, Drosophila fruit flies were fed four different types of media: 1) standard fruit fly media with 0 mM BMAA (control), 2) media enriched with 25 mM L-Serine, 3) media with 25 mM BMAA added, and 4) media with both 25 mM BMAA and 25 mM L-Serine added for three days of feeding. Misincorporation of BMAA into proteins was then analyzed using triple quadrupole LC/MS/MS and Orbital Trap LC/MS/MS.
# Equally interesting is the analysis of the protective value of L-Serine on Drosophila dosed with BMAA. Fruit flies fed with BMAA enriched media (third set of blocks) suffered a 40% mortality after three days, while flies fed with Serine plus BMAA (fourth set of blocks) had no mortality (FIG. 8). These flies were rescued by L-Serine.
# MRC-5 cells [2] = experiment: Incorporation of 3H-BMAA radiolabel into cell proteins (TCA precipitation, liquid scintillation counting); type: cell-based, human; details: 3H-BMAA 31.25 nM, 16 hours
# Method: MRC-5 cells were incubated with ^3H-BMAA (31.25 nM) in HBSS containing 10% FCS. After 2, 4, and 16 hours, cells were washed three times in phosphate buffered saline and lysed by freeze-thawing in Triton X-100. The protein concentration in the lysate was determined using the bicinchoninic acid assay (BCA) (Smith, et al., Anal Biochem 150, 76-85 (1985)) (and radiolabel in the cell lysate quantified by liquid scintillation counting (LSC). Cell proteins were then isolated by trichloroacetic acid (TCA) (5%) precipitation washed three times in TCA (5%) and dissolved in formic acid.
# To determine if incorporation of radiolabel into proteins was protein synthesis dependent MRC-5, SH-SY5Y and HUVEC cells were incubated with ^3H-BMAA (31.25 nM) with or without CHX 2 μg/ml for 16 hours. The amount of radiolabel present in cell proteins in the CHM-treated cultures was expressed relative to that of control cultures, which was set at 100%. Parallel cultures of MRC-5 cells were incubated with ^3H-leucine (41 nM) with or without CHX 2 μg/ml under identical culture conditions and processed as before.
# To examine the ability of individual amino acids to reduce incorporation or radiolabel into proteins, MRC-5 cells were incubated with ^3H-BMAA (31.25 nM) for 16 hours in the presence of individual amino acids (250 μM) and the radiolabel present in the cell proteins assessed as before. All of the 20 protein amino acids (L-isomers) were examined individually in triplicate cell cultures. […] Incorporation of radiolabel was determined relative to cells incubated in medium containing no serine. MRC-5 cells were then incubated with ^3H-BMAA (31.25 nM) for 16 hours in HBSS alone, HBSS containing all 20 protein amino acids (400 μM) or 19 protein amino acids except L-serine and the amount of radiolabel in cell protein assessed as before.
# MRC-5 cells [3] = experiment: Protein-bound non-labeled BMAA in hydrolysed cell proteins by triple quadrupole LC/MS/MS; type: cell-based, human; details: BMAA 250-1000 μM with L-serine 250-1000 μM, or CHX
# Method: After incubation with ^3H-BMAA or cold BMAA, cells were washed three times with PBS, lysed by freeze thawing in Triton-X-100 (0.1%) and cell proteins precipitated in TCA (5%). Protein pellets were washed three times with TCA (5%) and hydrolysed in boiling 6 M HCl at 110° C. for 16 hours as previously described (Mondo, et al., Mar Drugs 10, 509-520 (2012)). Protein pellets were freeze-dried and reconstituted in 20 mM HCl. Particulates were removed by centrifugation through […] membranes and the hydrolysate derivatized in AccQ·Tag (Waters Corporation, Australia). Amino acids were separated on a Waters C-18 column using a method and gradient as described previously (Mondo, et al., Mar Drugs 10, 509-520 (2012)). For recovery of radiolabel in hydrolysed samples, fractions were collected manually every minute for 40 minutes, diluted into 5 ml scintillant (Ultima Gold™ scintillant, Perkin Elmer) and disintegrations per minute (DPM) determined by LSC.
# To further confirm that BMAA was present in cell proteins and incorporation was inhibited by L-serine, MRC-5 cells were incubated with a range of concentrations of BMAA (250-1000 μM) or BMAA with L-serine (250-1000 μM) and hydrolysed cell proteins were analyzed by tandem mass spectroscopy on a triple quadrupole LC/MS/MS. […]
structure (smiles),measurement,setting,value
N[C@@H](CO)C(=O)O [L-serine],effect on BMAA-induced Annexin V binding / apoptosis,SH-SY5Y cells,abrogated; also recorded: significantly reduced
same,effect on BMAA-induced formation of autofluorescent bodies,MRC-5 cells [1],prevented the formation of autofluorescent bodies
same,mortality of flies fed BMAA plus L-Serine,Drosophila fruit flies,blocks BMAA induced mortality
same,mortality of flies fed BMAA plus L-Serine,Drosophila fruit flies; listed as L-Serine,no mortality
same,incorporation of BMAA into proteins when L-serine was omitted from the amino acid mixture,MRC-5 cells [2]; 19 protein amino acids 400 μM without L-serine,significantly increased
same,effect on incorporation of 3H-BMAA into cell proteins,"MRC-5 cells [2]; L-serine 0, 50, 100 and 250 μM",inhibited in the presence of L-serine in a concentration-dependent manner; also recorded: inhibition of incorporation of radiolabel into cell proteins
same,effect on incorporation of non-labeled BMAA into cell proteins,MRC-5 cells [3],inhibited
